Results reported in ChEMBL document CHEMBL1149036, “Swertifrancheside, an HIV-reverse transcriptase inhibitor and the first flavone-xanthone dimer, from Swertia franchetiana” (J Nat Prod, 1994).
In brackets after ≈: the same amount, converted by molar mass.

Experiments:
[1] = molecular target: Human immunodeficiency virus type 1 reverse transcriptase (Human immunodeficiency virus 1) (UniProt Q72547); assay: Inhibition of HIV1 reverse transcriptase
[2] = molecular target: Human immunodeficiency virus type 1 reverse transcriptase (Human immunodeficiency virus 1) (UniProt Q72547); assay: Inhibition of HIV1 reverse transcriptase at 200 ug/mL

| ED50 [1] [µg/mL] | inhibition [2] [%] | Structure (SMILES) |
| --- | --- | --- |
| 3 (≈ 4.32 µM) |  | COc1cc(O)c2c(=O)c3c(O)c(-c4c(O)c([C@@H]5O[C@H](CO)[C@@H](O)[C@H](O)[C@H]5O)c(O)c5c(=O)c6cc(O)c(O)cc6oc45)cc(O)c3oc2c1 |
| 30.9 (≈ 42.9 µM) | 99.8 | COc1cc(O)c2c(=O)c3c(O)c(-c4c(O)c([C@@H]5O[C@H](CO)[C@@H](O)[C@H](O)[C@H]5O)c(O)c5c(=O)cc(-c6ccc(O)c(O)c6)oc45)cc(O)c3oc2c1 |
